In ChEMBL document CHEMBL4316584, “All that glitters is not gold: Panning cytotoxic natural products and derivatives with a fused tricyclic backbone by the estimation of their leadlikeness for cancer treatment” (Eur J Med Chem, 2019):

Experiments:
Format in all cases: functional, cell-based
A549 = experiment: Cytotoxicity against human A549 cells after 48 hrs by MTT assay; details: Homo sapiens, A549, 48 h
HeLa = experiment: Cytotoxicity against human HeLa cells after 48 hrs by MTT assay
HCT-116 = experiment: Cytotoxicity against human HCT116 cells after 48 hrs by MTT assay; details: HCT-116, 48 h

SMILES	IC50 (HCT-116) [µM]	other results
CC(C)=CCc1c(O)c(CC=C(C)C)c2oc3ccc(O)cc3c(=O)c2c1O	–	IC50 (A549): 8.85 µM
CC(C)C1=C(O)C(=O)C2=C(C=C[C@H]3C(C)(C)CCC[C@]23C)C1=O	–	IC50 (HeLa): 6.56 µM
O=c1c2ccccc2oc2cc(O)ccc12	–	IC50 (A549): 14.6 µM
CC(C)c1cc2c(cc1O)[C@@]1(C)CCCC(C)(C)[C@@H]1[C@@H](O)C2=O	–	IC50 (HeLa): 7.7 µM
COC(=O)c1c(O)ccc2oc3cc(C)cc(O)c3c(=O)c12	–	IC50 (A549): 5.2 µM
COc1ccc(C(=O)/C=C/c2cc3c([nH]c4ccccc43)c(-c3ccc(F)cc3)n2)cc1	–	IC50 (A549): 8.43 µM
COc1ccc(C(=O)/C=C/c2cc3c([nH]c4ccccc43)c(-c3ccc(F)c(OC)c3)n2)cc1	–	IC50 (A549): 5.1 µM
CC(=O)N1N=C(c2ccco2)CC1c1cc2c([nH]c3ccccc32)c(-c2ccc(C(F)(F)F)cc2)n1 (centres undefined)	–	IC50 (A549): 2.39 µM
COc1ccc(C(=O)/C=C/c2cc3c([nH]c4ccccc43)c(-c3cc(OC)c(OC)c(OC)c3)n2)cc1	–	IC50 (A549): 9.61 µM
O=C(/C=C/c1cc2c([nH]c3ccccc32)c(-c2ccc(F)cc2)n1)c1ccc(F)cc1	–	IC50 (A549): 5.65 µM
CCOC(=O)CN(C)CC1CCc2c(n(C)c3ccccc23)C1=O (centres undefined)	18.9	–
Cc1cc(C)cc(NC(=O)[C@H](C)NC(=S)NC(=O)[C@]2(C)CCC[C@]3(C)c4ccc(C(C)C)cc4CC[C@@H]23)c1	–	IC50 (HeLa): 18.6 µM
CC(C)c1cc(C(=O)O)c2c(c1O)O[C@H]1C(C)(C)CCC[C@]21C	–	IC50 (HeLa): 17.8 µM
C[C@]1(O)Cc2c(O)c3c(c(O)c2[C@H](O)[C@H]1O)C(=O)C(SCCCO)=C(SCCCO)C3=O	3.08	–
Cn1c2c(c3ccccc31)CCC(CN1CCOCC1)C2=O (centres undefined)	4.73	–
CCCCCCOc1cccc2c1C(=O)c1c(OCCCCCC)cc(Cn3cnc4c(N)ncnc43)cc1C2=O	8.1	–
CC1CCN(C2=CC(=O)c3c(O)c4c(c(O)c3C2=O)C[C@](C)(O)[C@H](O)[C@H]4O)CC1	3.25	–
Cc1nccc2c3ccccc3n(CCCCn3c4ccccc4c4ccnc(C)c43)c12	3.58	–
Nc1ncnc2c1ncn2Cc1cc(O)c2c(c1)C(=O)c1cccc(O)c1C2=O	7.8	–
COc1ccc(NC(=O)[C@H](Cc2ccccc2)NC(=S)NC(=O)[C@]2(C)CCC[C@]3(C)c4ccc(C(C)C)cc4CC[C@@H]23)cc1	–	IC50 (HeLa): 15.6 µM
CC(=O)N1N=C(c2ccc(N)cc2)CC1c1cc2c([nH]c3ccccc32)c(-c2ccc(F)c(F)c2)n1 (centres undefined)	–	IC50 (A549): 9.77 µM
COc1cc(NC(=O)[C@H](C)NC(=S)NC(=O)[C@]2(C)CCC[C@]3(C)c4ccc(C(C)C)cc4CC[C@@H]23)cc(OC)c1OC	–	IC50 (HeLa): 18.1 µM
CC(C)c1ccc2c(c1)CC[C@H]1[C@](C)(C(=O)NC(=S)N[C@@H](Cc3ccccc3)C(=O)Nc3ccccc3Cl)CCC[C@]21C	–	IC50 (HeLa): 17 µM
CCCCn1c2c(c3ccccc31)CCC(CN1CCOCC1)C2=O (centres undefined)	5.82	–
CC(=O)N1N=C(c2ccc(N)cc2)CC1c1cc2c([nH]c3ccccc32)c(-c2ccc(C(F)(F)F)cc2)n1 (centres undefined)	–	IC50 (A549): 13.2 µM

SMILES	IC50 (HCT-116) [µM]	other results
Cn1c2c(c3ccccc31)CCC(CN1CCCCC1)C2=O (centres undefined)	2.33	–
CCCCCCNC1=CC(=O)c2c(O)c3c(c(O)c2C1=O)C[C@](C)(O)[C@H](O)C3	3.14	–
CC(C)=CCn1c2c(c3ccccc31)CCC(CN1CCOCC1)C2=O (centres undefined)	4.55	–
O=C(/C=C/c1cc2c([nH]c3ccccc32)c(-c2ccc(F)c(F)c2)n1)c1cccs1	–	IC50 (A549): 6.76 µM
CCN(C)CC1CCc2c(n(C)c3ccccc23)C1=O (centres undefined)	11.8	–
CC1CCN(C2=CC(=O)c3c(O)c4c(c(O)c3C2=O)C[C@](C)(O)[C@H](O)C4)CC1	14.9	–
Cc1cccc2c1ccc1cc(C(C)CO)c(=O)oc12 (centres undefined)	–	IC50 (HeLa): 0.86 µM
O=c1c2ccc(O)c(O)c2oc2cc(O)cc(O)c12	18.6	–
C[C@]1(O)Cc2c(O)c3c(c(O)c2C[C@H]1O)C(=O)C=C(N1CCCCC1)C3=O	16.3	–
Cn1c2c(c3ccccc31)CCC(CN1CCCC1)C2=O (centres undefined)	12.8	–
CC(=O)O[C@@H]1[C@H](C)CC(O)=C2C(=O)c3c(ccc(-c4ccc(O)c5c4O[C@@]4(CO)C(=C(O)C[C@@H](C)[C@H]4OC(C)=O)C5=O)c3O)O[C@@]21CO	7.12	–
CO[C@H]1[C@H](O)C[C@@H](O[C@@H]2C[C@H](Oc3cc4cc5c(c(O)c4c(O)c3C)C(=O)[C@@H](O[C@H]3C[C@H](O[C@H]4C[C@H](O[C@H]6C[C@@](C)(O)[C@@H](OC(C)=O)[C@H](C)O6)[C@H](O)[C@@H](C)O4)[C@H](O)[C@@H](C)O3)[C@H]([C@H](OC)C(=O)[C@@H](O)[C@@H](C)O)C5)O[C@H](C)[C@H]2OC(C)=O)O[C@@H]1C	0.3	–
CCSC1=C(SCC)C(=O)c2c(O)c3c(c(O)c2C1=O)C[C@](C)(O)[C@H](O)[C@H]3O	0.95	–
CC(=O)N1N=C(c2ccco2)CC1c1cc2c([nH]c3ccccc32)c(-c2cccc(Cl)c2)n1 (centres undefined)	–	IC50 (A549): 15.4 µM
COC(=O)c1ccc2c(=O)c3c(OC)cc(CCO)cc3oc2c1O	–	IC50 (A549): 4.8 µM
CC(C)c1ccc2c(c1)CC[C@H]1[C@](C)(C(=O)NC(=S)N[C@@H](C)C(=O)Nc3ccccn3)CCC[C@]21C	–	IC50 (HeLa): 14.3 µM
CC(C)c1ccc2c(c1)CC[C@H]1[C@](C)(C(=O)NC(=S)N[C@@H](C)C(=O)Nc3ccccc3Cl)CCC[C@]21C	–	IC50 (HeLa): 19.7 µM
CC(=O)OC[C@]12Oc3ccc(-c4ccc(O)c5c4O[C@@]4(CO)C(=C(O)C[C@@H](C)[C@H]4OC(C)=O)C5=O)c(O)c3C(=O)C1=C(O)C[C@@H](C)[C@H]2OC(C)=O	6.92	–
Cc1ccccc1NC(=O)[C@H](Cc1ccccc1)NC(=S)NC(=O)[C@]1(C)CCC[C@]2(C)c3ccc(C(C)C)cc3CC[C@@H]12	–	IC50 (HeLa): 17.7 µM
CC(C)c1ccc2c(c1)CC[C@H]1[C@](C)(C(=O)NC(=S)N[C@@H](C)C(=O)Nc3ccc(Br)cc3)CCC[C@]21C	–	IC50 (HeLa): 19 µM
C[C@]1(O)Cc2c(O)c3c(c(O)c2[C@H](O)[C@H]1O)C(=O)C=C(Nc1ccccc1)C3=O	4.84	–
COc1cc(-c2nc(/C=C/C(=O)c3ccco3)cc3c2[nH]c2ccccc23)cc(OC)c1OC	–	IC50 (A549): 3.8 µM
Cc1cccc2c1ccc1cc(C(C)C)c(=O)oc12	–	IC50 (HeLa): 7.92 µM
CN1CCN(CC2CCc3c(n(C)c4ccccc34)C2=O)CC1 (centres undefined)	14	–
CC(C)c1ccc2c(c1)CC[C@H]1[C@](C)(C(=O)NC(=S)N[C@@H](Cc3ccccc3)C(=O)Nc3ccc(Cl)cc3)CCC[C@]21C	–	IC50 (HeLa): 17.2 µM

SMILES	IC50 (HCT-116) [µM]	other results
CCCCCCSC1=C(SCCCCCC)C(=O)c2c(O)c3c(c(O)c2C1=O)C[C@](C)(O)[C@H](O)[C@H]3O	0.74	–
CNC1=CC(=O)c2c(O)c3c(c(O)c2C1=O)C[C@](C)(O)[C@H](O)C3	16.6	–
COc1cc(-c2nc(C3CC(c4ccco4)=NN3C(C)=O)cc3c2[nH]c2ccccc23)cc(OC)c1OC (centres undefined)	–	IC50 (A549): 3.2 µM
CC(C)=CCc1c(O)cc(O)c2c(=O)c3c(O)cccc3oc12	10.8	–
C[C@]1(O)Cc2c(O)c3c(c(O)c2[C@H](O)[C@H]1O)C(=O)C=C(NCc1ccc(F)cc1)C3=O	4.92	–
Cn1c2c(c3ccccc31)CCC(Cn1ccnc1)C2=O (centres undefined)	3.12	–
O=C(/C=C/c1cc2c([nH]c3ccccc32)c(-c2ccc(F)c(F)c2)n1)c1ccco1	–	IC50 (A549): 9.54 µM
Cc1ccc(NC(=O)[C@H](Cc2ccccc2)NC(=S)NC(=O)[C@]2(C)CCC[C@]3(C)c4ccc(C(C)C)cc4CC[C@@H]23)cc1	–	IC50 (HeLa): 19.1 µM
CCCCCCSC1=C(SCCCCCC)C(=O)c2c(O)c3c(c(O)c2C1=O)C[C@@H](O)[C@@](C)(O)C3	2.94	–
CCCCSC1=C(SCCCC)C(=O)c2c(O)c3c(c(O)c2C1=O)C[C@@H](O)[C@@](C)(O)C3	2.75	–
CCCCNC1=CC(=O)c2c(O)c3c(c(O)c2C1=O)C[C@](C)(O)[C@H](O)C3	3.29	–
O=C1c2cccc(O)c2C(=O)c2c(O)cc(Cn3cc(F)c(=O)[nH]c3=O)cc21	2.8	–
COc1cc(C2=NN(C(C)=O)C(c3cc4c([nH]c5ccccc54)c(-c4ccc(F)c(F)c4)n3)C2)cc(OC)c1OC (centres undefined)	–	IC50 (A549): 11 µM
C[C@]1(O)Cc2c(O)c3c(c(O)c2C[C@H]1O)C(=O)C=C(NCc1ccc(F)cc1)C3=O	7.09	–
O=c1c2ccc(O)cc2oc2cc(O)cc(O)c12	19.8	–
O=c1c2ccc(O)c(O)c2oc2c(O)c(O)ccc12	18.5	–
COc1cc(O)c2c(c1)C(=O)C1=C(C[C@@H](O)[C@@](C)(O)[C@@H]1O)C2=O [ALTERSOLANOL C]	3.03	–
COC1=CC(=O)c2c(O)c3c(c(O)c2C1=O)C[C@](C)(O)[C@H](O)[C@H]3O [BOSTRYCIN]	4.78	–
COc1c(O)cc2oc3cc(O)c(CC=C(C)C)c(O)c3c(=O)c2c1C/C=C(\C)CCC=C(C)C [COWANIN]	–	IC50 (HeLa): 11.7 µM
COc1cc2c(=O)c3c(O)c(C/C=C(\C)CCC=C(C)C)c(O)cc3oc2cc1O [COWAXANTHONE]	–	IC50 (HeLa): 15.8 µM
CC(=O)O[C@@H]1[C@H](C)CC(O)=C2C(=O)c3c(ccc(-c4ccc5c(c4O)C(=O)C4=C(O)C[C@@H](C)[C@@H](OC(C)=O)[C@@]4(CO)O5)c3O)O[C@@]21CO [DICERANDROL A]	2.64	–
CC(=O)OC[C@]12Oc3ccc(-c4ccc5c(c4O)C(=O)C4=C(O)C[C@@H](C)[C@@H](OC(C)=O)[C@@]4(CO)O5)c(O)c3C(=O)C1=C(O)C[C@@H](C)[C@H]2OC(C)=O [DICERANDROL B]	3.94	–
COC1=CC(=O)c2c(cc3c(c2O)C[C@@H](O)[C@@](C)(O)C3)C1=O [NIGROSPORIN B]	4.7	–
CC(C)c1ccc2c(c1)CC[C@H]1[C@](C)(CO)CCC[C@]21C [POMIFERIN A]	–	IC50 (HeLa): 15.7 µM
